Experimental data published in article PMC10149214 (The Journal of Biological Chemistry, 2023).
Several values for one entry are separate records, joined by “and”; a condition that tells them apart may be missing. Equal entries are not always repeated.

Tests used:
CRAF = test system: CRAF; design: method as in PMID 33355204; settings: purified CRAF; reaction conditions not provided; cited from earlier work
BRAF^WT = BRAF^WT (Homo sapiens, UniProt P15056); experiment: TR-FRET kinase inhibition assay (MEK1 activation loop phosphorylation), BRAF^WT dimer
CRAF^WT = CRAF^WT (Homo sapiens, UniProt P04049); experiment: TR-FRET kinase inhibition assay (MEK1 activation loop phosphorylation), CRAF^WT dimer
ARAF^SSDD = molecular target: T1, ARAF^SSDD (Homo sapiens, UniProt P10398, G300S/Y301D/Y302D); experiment: TR-FRET kinase inhibition assay (MEK1 activation loop phosphorylation), ARAF^SSDD dimer; settings: for Hill slope: four-parameter fit, ARAF^SSDD 10 nM, ATP 200 μM
T1 sequence (P10398 274-606 G300S/Y301D/Y302D): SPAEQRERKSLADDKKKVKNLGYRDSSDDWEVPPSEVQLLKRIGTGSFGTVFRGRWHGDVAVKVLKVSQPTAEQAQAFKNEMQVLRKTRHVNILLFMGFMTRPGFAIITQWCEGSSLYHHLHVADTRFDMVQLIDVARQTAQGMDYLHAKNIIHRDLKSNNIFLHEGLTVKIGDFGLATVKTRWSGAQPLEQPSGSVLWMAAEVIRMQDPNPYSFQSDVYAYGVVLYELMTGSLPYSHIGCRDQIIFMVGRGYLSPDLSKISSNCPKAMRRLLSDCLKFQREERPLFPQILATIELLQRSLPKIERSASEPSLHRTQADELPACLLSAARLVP

CRAF^SSDD = CRAF^SSDD (Homo sapiens, UniProt P04049, Y340D/Y341D); experiment: TR-FRET kinase inhibition assay (MEK1 activation loop phosphorylation), CRAF^SSDD dimer
BRAF^V600E = BRAF^V600E (Homo sapiens, UniProt P15056, V600E); experiment: TR-FRET kinase inhibition assay (MEK1 activation loop phosphorylation), BRAF^V600E monomer
[1] = design: method as in PMID 28082416, PMID 25792358; settings: cited from earlier work

IC50 (BRAF^WT)	Ki (BRAF^WT)	Hill slope (BRAF^WT; four-parameter fit, BRAF^WT 1 nM, ATP 200 μM)	Ki (CRAF^WT)	IC50 (CRAF^WT; IC50, CRAF^WT 4 nM, ATP 200 μM, WT MEK1 substrate 250 nM, mean ± SD)	Hill slope (CRAF^WT; four-parameter fit, CRAF^WT 4 nM, ATP 200 μM)	IC50 (ARAF^SSDD)	Ki (ARAF^SSDD)	Hill slope (ARAF^SSDD)	IC50 (CRAF^SSDD)	Ki (CRAF^SSDD)	Hill slope (CRAF^SSDD; four-parameter fit, CRAF^SSDD 1 nM, ATP 200 μM)	IC50 (BRAF^V600E)	Ki (BRAF^V600E)	Hill slope (BRAF^V600E; four-parameter fit, BRAF^V600E 1 nM, ATP 200 μM)	Inhibition of ARAF^SSDD at highest inhibitor concentration (ARAF^SSDD; 10 μM, the highest inhibitor concentration achievable in this assay)	SMILES	IC50 (CRAF)	Brain penetration [1]
13.4 ± 0.3 nM	0.13 ± 0.08 nM	−2.73 ± 0.23	0.04 ± 0.03 nM	3.7 nM and 3.66 nM	−2.57 ± 0.65	414 ± 186 nM	5.71 ± 2.97 nM	−0.78 ± 0.05	3.64 ± 0.36 nM	0.01 ± 0.001 nM	−3.03 ± 0.73	49.2 ± 3 nM	2.04 ± 0.83 nM	−0.96 ± 0.09		Cc1ccc(NC(=O)c2ccnc(C(F)(F)F)c2)cc1-c1cc(OCCO)nc(N2CCOCC2)c1 [Naporafenib, N-(3-(2-(2-Hydroxyethoxy)-6-morpholinopyridin-4-yl)-4-methylphenyl)-2-(trifluoromethyl)isonicotinamide]	0.07 nM	
						> 3000 nM	> 40 nM	−1.12 ± 0.42							did not completely inhibit	C[C@@H](NC(=O)c1ncnc(N)c1Cl)c1ncc(C(=O)Nc2cc(C(F)(F)F)c(Cl)cn2)s1 [Tovorafenib]		brain-penetrant
